Data set [1] concerns AKT phosphorylation (PI3K signaling downstream of CXCR4). The data set is described as follows: Western blot, AKT S473 phosphorylation in BCR–ABL1 cells. Conditions: 10 µM, 100 ng/mL mouse CXCL12, 5 min; n = 3. The format is cell-based. The protocol:
BCR–ABL1 cells were collected as 5 × 10^6 cells/500 μL complete media and treated either with DMSO or different inhibitors in the absence and presence of 100 ng/mL mouse CXCL12 for 5, 15, and 30 min at 37 °C. Cells were then immediately transferred onto ice to stop the reaction and washed with ice-cold PBS. Cell extract was prepared by resuspending the cell pellet in 100 μL of radio-immunoprecipitation assay (RIPA) buffer supplemented with 1X protease inhibitor cocktail (#78429, Thermo Fisher), 1 mM sodium orthovanadate (Sigma-Aldrich), and 10 mM beta-glycerophosphate (Sigma-Aldrich). For each treatment, 15 μL of cell extract was mixed with 5 μL of 4X Laemmli buffer (reducing), boiled at 95 °C for 10 min, and run on 10% SDS-PAGE. Gels were wet-transferred to PVDF membranes (Millipore, Burlington, MA, USA) and stained with 0.1% ponceau-S solution to check for efficient blotting. The membranes were blocked with 3% BSA solution and incubated with primary antibodies at 4 °C overnight. The next day, primary antibodies were washed, and membranes were probed with horseradish peroxidase (HRP)-conjugated secondary antibodies at RT for 2 h. After washing, the blots were developed using Immobilon ECL Ultra Western HRP Substrate (#WBULS0500, Millipore), and images were acquired with a Fusion SL gel imaging system (Vilber Lourmat, Eberhardzell, Germany). […]

Data set [2] deals with TKO-EV cells (untransformed mouse BM pro-B cells). Kind of data set: Real-time cell growth analysis by IncuCyte, untransformed TKO-EV cells. Conditions: 1, 5 and 10 µM, 96 h; n = 3.
Procedure: A flat-bottom 96-well plate was coated with 0.01% poly-L ornithine (#P4957, Sigma-Aldrich, Hamburg, Germany) for 1 h at room temperature (RT). BCR–ABL1, SupB15, and 697 cells were counted as 0.5 × 10^5 cells/well, while TKO-BCR–ABL1 and TKO-EV cells as 1 × 10^5 cells/well, which were labeled with IncuCyte Cytotox Red dye (#4632, Sartorius, Ulm, Germany) as per the manufacturer’s protocol. The cells were plated in 100 μL complete medium. […] Plate was prewarmed at 37 °C for 30 min prior to placing in the IncuCyte chamber. Scanning was conducted every two hours for total of 4 days. Images were acquired using a 20X objective in phase contrast and fluorescence mode at 4 images/well and analyzed using the cell-by-cell analysis module of IncuCyte software version 2020B (Essen Bioscience, Ann Arbor, MI, USA).
Data set [3] relates to pro/anti-apoptotic genes (Jun, Bax, Bim, Bcl2, Bcl-xl, FasL). The data set is described as follows: Real-time gene expression analysis (Taqman) in BCR–ABL1 cells. Conditions: 10 µM, n = 3. The format is cell-based, mouse. The protocol:
BCR–ABL1 cells were plated at 1 × 10^6 cells/well of a 12-well plate in 1 mL of complete media and treated with DMSO or various inhibitors. After specific time points (24 and 48 h), RNA was isolated from cells using a ReliaPrep Cell RNA miniprep kit (#Z6011, Promega). Fifty nanograms of total RNA was reverse-transcribed using a high-capacity RNA to cDNA kit (#4387406, Thermo Fisher), and gene expression was measured via Taqman assay using Taqman Gene expression master mix (#4369016, Thermo Fisher) following ghd manufacturer’s protocol. The following Taqman probes were used: Jun (Mm07296811_s1), Bax (Mm00432051_m1), Bim (Mm00437796_m1), Bcl2 (Mm00477631_m1), Bcl-xl (00437783_m1), FasL (Mm00438864_m1), and beta actin (04394036_g1).

The test system of the next data set is JNK1/2 phosphorylation. Kind of data set: Western blot, basal JNK1/2 phosphorylation in BCR–ABL1 cells. Format: cell-based, mouse. Conditions: 10 µM, no CXCL12, 5 min; n = 3. The method, then: BCR–ABL1 cells were collected as 5 × 10^6 cells/500 μL complete media and treated either with DMSO or different inhibitors in the absence and presence of 100 ng/mL mouse CXCL12 for 5, 15, and 30 min at 37 °C. Cells were then immediately transferred onto ice to stop the reaction and washed with ice-cold PBS. […] For each treatment, 15 μL of cell extract was mixed with 5 μL of 4X Laemmli buffer (reducing), boiled at 95 °C for 10 min, and run on 10% SDS-PAGE. Gels were wet-transferred to PVDF membranes (Millipore, Burlington, MA, USA) and stained with 0.1% ponceau-S solution to check for efficient blotting. The membranes were blocked with 3% BSA solution and incubated with primary antibodies at 4 °C overnight. The next day, primary antibodies were washed, and membranes were probed with horseradish peroxidase (HRP)-conjugated secondary antibodies at RT for 2 h. After washing, the blots were developed using Immobilon ECL Ultra Western HRP Substrate (#WBULS0500, Millipore), and images were acquired with a Fusion SL gel imaging system (Vilber Lourmat, Eberhardzell, Germany).

Another data set concerns SupB15 cells. The data set is described as follows: Real-time cell growth by IncuCyte, SupB15. The format is cell-based, human. As to conditions: 10 µM, 96 h; n = 3. The protocol:
(§1) The cells were plated in 100 μL complete medium.

Data set [4] deals with WT mouse BM-derived B cells. Kind of data set: Real-time cell growth, normal WT mouse BM-derived B cells. The format is cell-based. Conditions: 10 µM JM#170, 10 µM AMD3100, 1 µM Imatinib; 96 h; n = 2. The method, then:
as §1

The test system of data set [5] is Imatinib-resistant Ph+ ALL primary xenograft cells. Kind of data set: Real-time cell growth by IncuCyte, primary Ph+ ALL xenograft cells. Format: cell-based, human. Conditions: 10 µM, 6 days; n = 2.
Procedure: Animals showing clinical symptoms of leukemia or with >75% leukemic blasts in blood were sacrificed, and total splenic cells were isolated and frozen for future use.
For Ph^+ ALL cells isolated from the xenografted NSG mice, frozen cells were thawed and cultured in MEM-alpha (Gibco) media supplemented with 20% FBS and 100 units/mL of penicillin/streptomycin for 5–16 h in a 5% CO2 incubator. Next, the cells were overlaid on 10 mL Ficoll-Paque™PLUS (#17144003, Cytiva, Freiburg, Germany) in 50 mL tubes and centrifuged at 400 g without break for 10 min at RT. The cells were collected from the interface of Ficoll and media and washed once with PBS. Viable cells were counted and plated into previously coated 48-well plates at 4.25 × 10^5 cells/well in 250 μL of media with or without the inhibitors. Scanning was conducted every two hours for total of 6 days in phase contrast mode and analyzed using the cell-by-cell analysis module of IncuCyte software version 2020B (Essen Bioscience).
The test system of data set [6] is 697 cells. The data set is described as follows: Real-time cell growth by IncuCyte, 697. The format is cell-based, human. As to conditions: 10 µM, 96 h; n = 3. The protocol:
as §1

Data set [7] deals with 697 cells. Kind of data set: Flow cytometric cell survival analysis, 697. Format: cell-based, human. As to conditions: 10 µM; n = 3. The method, then: Cells treated with either solvent control DMSO or different concentrations of inhibitors for different time points were collected and washed with ice-cold PBS. Cells were then stained with efluor 450-labeled fixable viability dye (FVD, #65-0863-14, eBioscience, San Diego, CA, USA) at 1:1000 dilution at 4 °C or using 50 μg/mL propidium iodide (PI, #P3566, Thermo Fisher, Dreieich, Germany) solution at RT for 15 min in the dark. After washing, labeled cells were resuspended in 100 μL of PBS and acquired using LSR-Fortessa (BD Bioscience, Heidelberg, Germany). FACS data were analyzed with FlowJo software version 10.0.

Counter-ions that a name gives are not always drawn.

For `c1cc(CN2CCCNCCNCCCNCC2)ccc1CN1CCCNCCNCCCNCC1` [AMD3100, AMD3100 octahydrochloride hydrate, reference compound], the “CXCL12-induced AKT S473 phosphorylation” value in data set [1] is given as “this elevation was blocked”. Besides, the “Survival/growth of TKO-EV cells” value in [2] is on record as “neither JM#170 nor AMD3100 had any effect”. The Pro/anti-apoptotic gene expression entry in data set [3] (24 and 48 h) is listed as “did not upregulate any gene expression”. The “Basal JNK phosphorylation vs DMSO” value with JNK1/2 phosphorylation is “such upregulation was not observed”.

Regarding “ILRWSRK * (Pal)-NH2 [JM#170, lipid-conjugated truncated version of EPI-X4, CXCR4 antagonist]”, the “SupB15 cell growth vs DMSO” value with SupB15 cells is listed as “significantly reduced SupB15 cell growth”. For the same compound, the “Growth of normal WT mouse BM-derived B cells” value in data set [4] was “remained inactive against the WT B cells”. Further, in data set [5], the “Growth of Ph+ ALL xenograft cells vs DMSO” value is “significant growth inhibitory effect”. The “CXCL12-induced AKT S473 phosphorylation” value in data set [1] is listed as “this elevation was blocked”. Further, in the data set on 697 cells [6], the “697 cell growth vs DMSO” value is given as “no effect on the 697 cells”. Besides, the “697 cell survival vs DMSO” value in the data set with 697 cells [7] is listed as “no effect on the survival of these cells”. In data set [3] (24 h), the Bax gene expression entry is “mildly upregulated”, the Bcl2 gene expression result is listed as “significant increase”, the Bcl-xl gene expression result is recorded as “not altered at all” and the Bim gene expression result was “significantly elevated”. Further, the Jun gene expression result in data set [3] (24 h) is “significantly elevated”. For the same compound, in data set [3] (48 h), the “Bax, Bim and Bcl2 gene expression” value is on record as “still significantly elevated levels”. For the same compound, the FasL gene expression entry in [3] is “inactivation of FasL”. For the same compound, the “Basal JNK phosphorylation vs DMSO” value in the data set on JNK1/2 phosphorylation was “transiently upregulated basal JNK phosphorylation”.

These data come from publication PMC11312813, “An Optimized Peptide Antagonist of CXCR4 Limits Survival of BCR–ABL1-Transformed Cells in Philadelphia-Chromosome-Positive B-Cell Acute Lymphoblastic Leukemia” (International Journal of Molecular Sciences, 2024).
